From paper PMC7374938 (Journal of medicinal chemistry, 2017)
Counter-ions that a name gives are not always drawn.

Key:
[1] = target: T1, human 5-HT2C-INI receptor (Homo sapiens, UniProt P28335); experiment: Calcium flux assay; type: cell-based; details: for 5-HT2C EC50: Table 1, FLIPR calcium flux, calculated from averaged pEC50; for Emax: read-out: 5-HT2C Emax, Table 1, normalized to % 5-HT, mean ± SEM (n = 3), NA = no activity up to 10 μM
T1 sequence (P28335 33-458): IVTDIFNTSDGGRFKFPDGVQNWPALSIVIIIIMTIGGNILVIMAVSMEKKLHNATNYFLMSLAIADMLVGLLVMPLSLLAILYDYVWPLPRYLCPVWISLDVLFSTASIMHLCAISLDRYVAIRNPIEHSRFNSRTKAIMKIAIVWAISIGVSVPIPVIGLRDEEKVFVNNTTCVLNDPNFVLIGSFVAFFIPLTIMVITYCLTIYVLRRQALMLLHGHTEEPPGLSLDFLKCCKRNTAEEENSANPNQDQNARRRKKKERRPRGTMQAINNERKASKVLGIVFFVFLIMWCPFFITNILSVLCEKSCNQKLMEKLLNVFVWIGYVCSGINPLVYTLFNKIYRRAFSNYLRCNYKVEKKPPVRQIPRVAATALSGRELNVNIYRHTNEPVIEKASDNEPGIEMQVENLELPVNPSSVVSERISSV

5-HT2B [2] = target: T2, 5-HT2B (Homo sapiens, UniProt P41595); experiment: Calcium flux assay; type: cell-based
T2 sequence (P41595 whole entry): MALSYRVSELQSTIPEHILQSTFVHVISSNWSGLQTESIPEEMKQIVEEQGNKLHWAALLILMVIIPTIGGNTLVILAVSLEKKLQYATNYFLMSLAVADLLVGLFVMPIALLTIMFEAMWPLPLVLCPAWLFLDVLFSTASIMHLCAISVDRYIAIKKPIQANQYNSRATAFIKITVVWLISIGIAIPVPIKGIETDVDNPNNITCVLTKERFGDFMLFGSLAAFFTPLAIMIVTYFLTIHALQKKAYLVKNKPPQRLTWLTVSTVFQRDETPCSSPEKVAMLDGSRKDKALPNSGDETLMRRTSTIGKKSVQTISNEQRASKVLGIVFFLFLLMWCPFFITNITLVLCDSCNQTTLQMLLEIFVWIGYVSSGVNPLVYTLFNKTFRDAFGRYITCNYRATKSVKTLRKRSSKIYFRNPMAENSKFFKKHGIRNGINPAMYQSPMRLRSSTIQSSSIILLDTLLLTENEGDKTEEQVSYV

[3] = target: T1, human 5-HT2C-INI receptor; experiment: Tango β-arrestin-2 recruitment assay; type: cell-based; details: for β-arrestin recruitment activity: 5-HT2C
5-HT2C [4] = target: T3, 5-HT2C (Homo sapiens, UniProt P28335); experiment: Binding affinity
T3 sequence (P28335 33-458): T1 sequence (P28335 33-458)

[5] = test system: serotonin receptors, dopamine receptors, monoamine transporters, and other selected CNS targets; experiment: Off-target binding panel; details: panel of CNS targets
C57BL/6J mice [6] = experiment: Baseline; type: in vivo, mouse; details: 0–15 min, male C57BL/6J mice
C57BL/6J mice [7] = experiment: Amphetamine; type: in vivo, mouse; details: AMPH 3 mg/kg, 90 min
C57BL/6J mice [8] = experiment: Phencyclidine; type: in vivo, mouse; details: PCP 5 mg/kg, 60 min
CYP2D6 = CYP2D6 (Homo sapiens, UniProt P10635); experiment: in vitro; details: human liver microsomes, probe dextromethorphan
CYP2D6, sequence (P10635 whole entry): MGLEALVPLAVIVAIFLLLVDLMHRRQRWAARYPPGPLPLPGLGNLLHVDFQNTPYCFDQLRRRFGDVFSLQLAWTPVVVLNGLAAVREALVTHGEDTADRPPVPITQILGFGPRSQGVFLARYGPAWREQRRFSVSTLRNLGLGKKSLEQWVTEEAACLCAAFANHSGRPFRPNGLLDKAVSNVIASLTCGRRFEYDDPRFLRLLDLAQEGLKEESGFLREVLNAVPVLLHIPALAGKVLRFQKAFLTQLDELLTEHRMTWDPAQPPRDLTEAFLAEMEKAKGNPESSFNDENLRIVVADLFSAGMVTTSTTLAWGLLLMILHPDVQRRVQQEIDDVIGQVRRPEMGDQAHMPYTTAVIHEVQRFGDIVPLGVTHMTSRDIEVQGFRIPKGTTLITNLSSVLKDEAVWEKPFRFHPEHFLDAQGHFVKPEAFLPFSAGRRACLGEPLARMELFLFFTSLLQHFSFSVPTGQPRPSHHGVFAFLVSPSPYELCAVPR

CYP3A4 = CYP3A4 (Homo sapiens, UniProt P08684); experiment: in vitro; details: human liver microsomes, probe midazolam
CYP3A4, sequence (P08684 whole entry): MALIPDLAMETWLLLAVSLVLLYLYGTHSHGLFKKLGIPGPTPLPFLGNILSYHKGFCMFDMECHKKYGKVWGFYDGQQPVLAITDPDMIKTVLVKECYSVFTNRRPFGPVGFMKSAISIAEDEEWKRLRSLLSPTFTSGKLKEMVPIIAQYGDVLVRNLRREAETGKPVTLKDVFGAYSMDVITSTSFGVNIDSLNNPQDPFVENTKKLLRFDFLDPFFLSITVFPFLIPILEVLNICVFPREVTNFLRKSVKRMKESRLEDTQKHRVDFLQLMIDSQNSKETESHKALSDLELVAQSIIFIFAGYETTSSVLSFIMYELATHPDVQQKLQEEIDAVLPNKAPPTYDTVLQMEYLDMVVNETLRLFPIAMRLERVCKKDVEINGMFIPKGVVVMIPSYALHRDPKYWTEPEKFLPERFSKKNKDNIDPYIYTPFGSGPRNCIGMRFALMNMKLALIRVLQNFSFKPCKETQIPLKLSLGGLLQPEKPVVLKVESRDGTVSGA

5-HT2A [9] = target: T4, 5-HT2A (Homo sapiens, UniProt P28223); experiment: Calcium flux assay; type: cell-based; details: read-out: 5-HT2A Emax
T4 sequence (P28223 whole entry): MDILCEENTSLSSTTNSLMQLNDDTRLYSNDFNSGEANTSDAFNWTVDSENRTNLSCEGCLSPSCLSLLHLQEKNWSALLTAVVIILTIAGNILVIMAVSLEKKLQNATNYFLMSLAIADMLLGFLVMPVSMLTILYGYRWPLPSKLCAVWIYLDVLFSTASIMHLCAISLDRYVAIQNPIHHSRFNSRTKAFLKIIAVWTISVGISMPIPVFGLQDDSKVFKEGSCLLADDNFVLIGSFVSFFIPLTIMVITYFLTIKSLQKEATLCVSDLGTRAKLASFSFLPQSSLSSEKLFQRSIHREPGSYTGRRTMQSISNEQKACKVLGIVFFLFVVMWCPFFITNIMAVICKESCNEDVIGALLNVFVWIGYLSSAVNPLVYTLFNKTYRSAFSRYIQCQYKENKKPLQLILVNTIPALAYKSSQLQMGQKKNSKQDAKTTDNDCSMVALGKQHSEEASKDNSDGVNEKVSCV

[10] = cited from earlier work
5-HT2B [11] = target: T2, 5-HT2B; details: cited from earlier work
5-HT2A [12] = target: T4, 5-HT2A; details: cited from earlier work
5-HT2C [13] = target: T3, 5-HT2C; details: cited from earlier work

COc1ccc(F)cc1C1CC1CNCC1CC1.Cl (racemic) [(±)-17, 1-Cyclopropyl-N-[[2-(5-fluoro-2-methoxyphenyl)cyclopropyl]methyl]methanamine Hydrochloride]
EC50 [1]: > 300 nM
5-HT2C EC50 [1]: lack of activity

COc1ccc(F)cc1C1CC1CNCc1ccccc1O.Cl (racemic) [(±)-22, 2-[[[[2-(5-Fluoro-2-methoxyphenyl)cyclopropyl]methyl]amino]methyl]phenol Hydrochloride]
selectivity for 5-HT2C over 5-HT2B (5-HT2B [2]): full selectivity

COc1ccc(F)cc1C1CC1CNCc1ccccc1C#N (racemic) [(±)-24, 2-[[[[2-(5-Fluoro-2-methoxyphenyl)cyclopropyl]methyl]amino]methyl]benzonitrile Hydrochloride]
Emax [1]: < 35%

COc1ccc(F)cc1C1CC1CNCc1ccccc1C(N)=O (racemic) [(±)-25, 2-[[[[2-(5-Fluoro-2-methoxyphenyl)cyclopropyl]methyl]amino]methyl]benzamide Hydrochloride]
Emax [1]: < 35%

COc1ccccc1CN(C)CC1CC1c1cc(F)ccc1OC.Cl (racemic) [(±)-28, 1-[2-(5-Fluoro-2-methoxyphenyl)cyclopropyl]-N-(2-methoxybenzyl)-N-methylmethanamine Hydrochloride]
reduction of 5-HT2C potency compared to the parent compound (+)-19 ([1]; racemate vs (+)-19): 15 fold

COc1ccc(F)cc1C1CC1CNCc1cccc2cc[nH]c12.Cl (racemic) [(±)-38, 1-[2-(5-Fluoro-2-methoxyphenyl)cyclopropyl)-N-[(1H-indol-7-yl)methyl]methanamine Hydrochloride]
5-HT2C EC50 [1]: entirely inactive

CNC[C@H]1C[C@@H]1c1cc(F)ccc1OC.Cl [(+)-15a, (+)-1-[(1S,2S)-2-(5-Fluoro-2-methoxyphenyl)cyclopropyl]-N-methylmethanamine Hydrochloride]
β-arrestin recruitment activity [3]: no β-arrestin recruitment activity
Ki (5-HT2C [4]): 81 nM

COc1ccccc1CNC[C@H]1C[C@@H]1c1cc(F)ccc1OC.Cl [(+)-19, (+)-1-[(1S,2S)-2-(5-Fluoro-2-methoxyphenyl)cyclopropyl]-N-(2-methoxybenzyl)methanamine Hydrochloride]
off-target affinity [5]: None of the other screened targets were found to display any significant off-target affinity
baseline locomotion (C57BL/6J mice [6]; 10 mg/kg IP): had no effect
baseline locomotion (C57BL/6J mice [6]; 20 mg/kg IP): had no effect
effect on amphetamine-induced hyperactivity (C57BL/6J mice [7]; 10 mg/kg IP): no significant effect
effect on amphetamine-induced hyperactivity (C57BL/6J mice [7]; 20 mg/kg IP): decreased the hyperlocomotion
effect on PCP-induced hyperactivity (C57BL/6J mice [8]; 10 mg/kg IP): increased locomotion
effect on PCP-induced hyperactivity (C57BL/6J mice [8]; 20 mg/kg IP): had no effect on PCP-induced hyperlocomotion
inhibition at 10 µM (CYP2D6): > 50%
inhibition at 10 µM (CYP3A4): > 50%

COc1ccc(F)cc1[C@H]1C[C@@H]1CNCc1cccs1.Cl [(+)-32, (+)-1-[(1S,2S)-2-(5-Fluoro-2-methoxyphenyl)cyclopropyl]-N-(thiophen-2-ylmethyl)methanamine Hydrochloride]
selectivity for 5-HT2C over 5-HT2B (5-HT2B [2]): full selectivity
β-arrestin recruitment activity [3]: no β-arrestin recruitment activity

COc1ccc(F)cc1[C@@H]1C[C@H]1CNCc1ccccc1Cl [(−)-27, (–)-N-(2-Chlorobenzyl)-1-[(1R,2R)-2-(5-fluoro-2-methoxyphenyl)cyclopropyl]methanamine Hydrochloride]
Emax (5-HT2A [9]): 84 ± 3.9%

COc1cc(CC(C)N)c(OC)cc1I (stereo not shown) [DOI]
effect on the locomotor effects of PCP [10]: potentiate the locomotor effects of PCP

CNc1nc(Cc2ccccc2)nc2c1CCNC[C@@H]2C [PF-4479745]
agonism at 5-HT2B (5-HT2B [11]): no measurable agonism
agonism at 5-HT2A (5-HT2A [12]): no measurable agonism

CNc1nc(Cc2ccccc2)cc2c1CCNCC2 [PF-04781340]
5-HT2C Emax (5-HT2C [13]): 99%
EC50 (5-HT2C [13]; read-out: 5-HT2C EC50): 9 nM
selectivity over 5-HT2B (5-HT2B [11]): about 160 fold

C[C@H]1CNCCc2ccc(Cl)cc21 [lorcaserin, reference compound]
Emax ([3]; read-out: β-arrestin-2 Emax): 97 ± 2.1%
baseline locomotion (C57BL/6J mice [6]; 3 mg/kg IP): decreased baseline locomotion
effect on amphetamine-induced hyperactivity (C57BL/6J mice [7]; 3 mg/kg IP): reduced amphetamine-induced hyperactivity
effect on PCP-induced hyperactivity (C57BL/6J mice [8]; 3 mg/kg IP): no overall reduction in activity that was statistically significant
